ChEMBL document CHEMBL4699453, “Correlations between functional porphyrin positions and accumulation in cancer cells” (Bioorg Med Chem Lett, 2020)

Key:
Albumin [1] = biological target: T1, Albumin (Bos taurus, UniProt P02769); assay: Binding affinity to bovine serum albumin assessed as Stem-Volmer quenching constant by fluorescence based Stern-Volmer plot analysis; settings: cattle
Albumin [2] = biological target: T1, Albumin; assay: Binding affinity to bovine serum albumin assessed as binding constant by fluorescence based Stern-Volmer plot analysis; settings: cattle
[3] = Drug uptake in human MCF7 cells at 10 uM incubated for 24 hrs by fluorescence based assay; type: ADME, cell-based; settings: mcf7, 24 h
[4] = Drug uptake in human MCF7 cells at 10 uM incubated for 2 hrs by fluorescence based assay; type: ADME, cell-based; settings: mcf7, 2 h

T1 sequence (P02769 whole entry): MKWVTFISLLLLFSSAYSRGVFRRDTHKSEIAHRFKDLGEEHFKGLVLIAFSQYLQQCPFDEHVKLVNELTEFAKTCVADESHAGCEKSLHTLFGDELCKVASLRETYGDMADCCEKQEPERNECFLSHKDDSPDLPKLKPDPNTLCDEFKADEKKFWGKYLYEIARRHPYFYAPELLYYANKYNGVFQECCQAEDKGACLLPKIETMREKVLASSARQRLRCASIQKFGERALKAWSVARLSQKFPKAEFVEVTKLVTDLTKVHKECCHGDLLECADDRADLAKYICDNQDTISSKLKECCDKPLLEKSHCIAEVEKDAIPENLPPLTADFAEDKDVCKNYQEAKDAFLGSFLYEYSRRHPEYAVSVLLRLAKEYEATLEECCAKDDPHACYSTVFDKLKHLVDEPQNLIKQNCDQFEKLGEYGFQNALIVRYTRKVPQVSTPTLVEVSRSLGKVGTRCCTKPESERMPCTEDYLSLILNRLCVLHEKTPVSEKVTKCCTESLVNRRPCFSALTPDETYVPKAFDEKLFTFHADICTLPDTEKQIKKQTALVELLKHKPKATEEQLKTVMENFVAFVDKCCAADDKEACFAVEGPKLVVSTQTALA

KSV (Albumin [1]) | Ka (Albumin [2]) | Drug uptake [3] | Drug uptake [4] | SMILES
4.09 10^4L/mol | 3.12 10^4L/mol | 4.4 10^-2microM | 3 10^-2microM | CCCCCCCCCCCCCCCC(=O)Nc1ccc(-c2c3nc(c(-c4ccccc4)c4ccc([nH]4)c(-c4ccccc4)c4nc(c(-c5ccccc5)c5ccc2[nH]5)C=C4)C=C3)cc1
4.33 10^4L/mol | 2.86 10^4L/mol | 4.3 10^-2microM | 3.3 10^-2microM | CC(=O)NC1=Cc2nc1c(-c1ccccc1)c1ccc([nH]1)c(-c1ccccc1)c1nc(c(-c3ccccc3)c3ccc([nH]3)c2-c2ccccc2)C=C1
4.96 10^4L/mol | 3.84 10^4L/mol | 5.8 10^-2microM | 5.8 10^-2microM | CC(=O)Nc1ccc(-c2c3nc(c(-c4ccccc4)c4ccc([nH]4)c(-c4ccccc4)c4nc(c(-c5ccccc5)c5ccc2[nH]5)C=C4)C=C3)cc1
3.03 10^4L/mol | 1.98 10^4L/mol | 1.7 10^-2microM | 1.7 10^-2microM | CCCCCCCCCCCCCCCC(=O)NC1=Cc2nc1c(-c1ccccc1)c1ccc([nH]1)c(-c1ccccc1)c1nc(c(-c3ccccc3)c3ccc([nH]3)c2-c2ccccc2)C=C1
